{"source": "patent US10533034B2", "about": "“Human iNKT cell activation using glycolipids” (ACADEMIA SINICA, priority 2014, dated 2020)", "key": {"[1]": {"tested_on": "human naïve Vα24+ iNKT cells", "test": "Expansion of human iNKT cells", "type": "cell-based", "conditions": "100 ng/ml; counted on day 9", "experimental": "Human naïve Vα24^+ iNKT cells were cultured with autologous immature CD14^+ DCs pulsed with the indicated glycolipid at 100 ng/ml or DMSO on day 2 for 18 h. On day 3, the suspension cells were transferred to a new dish, cultured in the presence of 50 U/ml IL-2 (R & D Systems), and replenished with fresh medium every 3 days. The percentage of Vα24^+/Vβ11^+ cells was determined by flow cytometry on day 9. The total cell number after expansion was calculated with the Guava ViaCount reagent (Millipore, USA) and detected by the Guava system with CytoSoft™ software containing the ViaCount module (Millipore, USA).\nAs described above, glycolipid analogs with αGal were stronger immune modulators than those with αGlc in mice, especially for the comparison between 7DW8-5 and 7DW8-5-Glc. To investigate if similar trends also applied to human iNKT cells, Vα24^+ iNKT cells isolated from the peripheral blood were incubated with immature DCs pulsed with the indicated glycolipid at 100 ng/ml on day 2. After antigen removal on day 3, human iNKT cells were cultured in the presence of IL-2. The number of expanded iNKT cells was counted using the Guava ViaCount reagent on day 9."}, "[2]": {"tested_on": "Murine DN3A4-1.2 Vα14 iNKT hybridoma cells", "test": "mCD1d vs. hCD1d swapping assay, murine iNKT cells", "type": "cell-based, mouse", "conditions": "presented by mCD1d or hCD1d; 1, 0.1, 0.01 μg/ml", "experimental": "(§1) (4A) Murine DN3A4-1.2 Vα14+ iNKT hybridoma cells or (4B) C1-expanded Vα24^+ iNKT cells were pulsed with the indicated glycolipid presented by either mCD1d (A20-CD1d cells) or hCD1d (HeLa-CD1d cells) at 1, 0.1, and 0.01 μg/ml. After 18 hr, the supernatants were harvested to measure IL-2 secretion by an ELISA assay (4A) or using Beadlyte® Human Cytokine kit and Luminex® 200™ reading system (4B). Assays were performed in triplicates. 8-5 was the abbreviation of 7DW8-5.\n(§2) Murine DN3A4-1.2 Vα14 iNKT hybridoma cells or C1-expanded Vα24^+ iNKT cells were pulsed with the indicated glycolipid antigen presented either by mCD1d (A20-CD1d cells) or hCD1d (HeLa-CD1d cells) at 1, 0.1, and 0.01 μg/ml. After 18 hr, the supernatants were harvested for the measurement of cytokine secretion(s). IL-2 released from Vα14^+ iNKT cells was determined by ELISA assay. IFN-γ, IL-4 and IL-2 secreted from Vα24^+ iNKT cells were detected using Beadlyte® Human Cytokine kit (Millipore, N.Y., USA) and Luminex® 200™ reading system.\nTo explain the species-specific responses, we examined the effects of swapping human vs. mouse CD1d molecules against human vs. murine iNKT cells on the stimulatory activities of GSLs with different glycosyl groups. […]"}, "[3]": {"tested_on": "C1-expanded Vα24+ iNKT cells", "test": "mCD1d vs. hCD1d swapping assay, human iNKT cells", "type": "cell-based", "conditions": "presented by mCD1d or hCD1d; 1, 0.1, 0.01 μg/ml", "experimental": "as §1\nC1-expanded Vα24^+ iNKT cells were pulsed with the indicated glycolipid antigen presented by either mCD1d (A20-CD1d cells) or hCD1d (HeLa-CD1d cells) at 1, 0.1, and 0.01 μg/ml. After 18 hr, the supernatants were harvested for the measurement of IFN-γ (12A) and IL-4 (12B) secretions. (12C) The ratio of IFN-γ over IL-4 was calculated at different concentrations of glycolipids. […]\nas §2, with “After 18 hr, the supernatants were harvested for the measurement of cytokine secretion(s).” left out, “system. […]” for “system.”"}}, "data": [{"compound": "CC[C@@H](O)[C@@H](O)[C@H](CO[C@H]1OC(CO)[C@@H](O)C(O)C1O)NC(=O)Cc1ccc(F)cc1", "note": "(stereo partly drawn) [Compound 7DW8-5-Glc]", "values": [{"measurement": "expansion of human iNKT cells in vitro compared with 7DW8-5", "setting": "[1]", "result": "significantly (p=0.0009) better"}]}, {"compound": "CCCCCCCCCCCCCC[C@@H](O)[C@@H](O)[C@H](CO[C@H]1O[C@H](CO)[C@@H](O)[C@H](O)[C@@H]1O)NC(=O)CCCCCCCCCCc1ccc(F)cc1", "note": "[Compound 7DW8-5-Man]", "values": [{"measurement": "cytokine (IL-2) secretion from murine iNKT cells", "setting": "[2]", "result": "could not stimulate"}, {"measurement": "cytokine secretion (IL-2, IFN-γ, IL-4) from human iNKT cells", "setting": "[3]", "result": "could not stimulate"}]}]}
